Blank lines part the entries; values can stand above or below the molecule they belong to. Bridges are numbered along the chain shown (N, C = ends). Where no end group is shown, it is not given here.
What was measured:
[1] = system: PLA2R autoantibody (27 MN anti-PLA2R positive sera); assay: BLI direct interaction assay: immobilized peptides with anti-PLA2R positive sera; format: binding, human; details: BLI (Octet Red); 27 MN sera at 1/200; dissociation rate from Hill-1 plot; n = 3
Method: BLI experiments were conducted using an Octet Red (ForteBio). Octet CDL sensors (coated with a thin layer of carboxymethyl dextran) were activated by EDC/NHS, at the same concentration used for SPR, for 300 s with 1000 rpm agitation. […] Following immobilization, sensors were deactivated in 1 M ethanolamine for 300 s to prevent further immobilization of proteins to the samples sensors.
The association phase was measured for 450 s with 1000 rpm agitation. The dissociation phase for each sensor was subsequently measured by incubating the sensors into Hepes-sera buffer for 1200 s at 1000 rpm. Regeneration of the sensor was achieved by six successive washes in 10 mM NaOH for 15 s followed by 15 s in Milli-Q water. The immobilized sensor responses to anti-PLA2R IgG were calibrated against nonspecific binding of each immobilized sensor to Hepes-sera buffer.
The dissociation phase of each response was collected and plotted, and the dissociation rate was calculated (kd) as the 1/k value produced from a Hill-1 plot analysis. The average dissociation rate was calculated for each peptide sensor binding to the 27 MN patients’ sera. Dissociation rates with an R^2 value <0.9 or χ^2 value >3 were excluded from the data due to poor fitting.

[2] = system: human anti-PLA2R antibody (MN anti-PLA2R IgG) binding to PLA2R-NC3; assay: SPR inhibition assay: peptides block anti-PLA2R IgG binding to immobilized PLA2R-NC3; details: SPR (ProteOn), 1 µM peptide, anti-PLA2R IgG 1/100 in Hepes buffer pH 7.2, maximal response, n = 3
Method: Real-time binding analysis was evaluated using an SPR instrument (ProteOn, BIO-RAD). ProteOn GLC sensor lanes were preactivated by injection of 18.75 mg/mL EDC (1-ethyl-3-(3-dimethylaminopropyl) carbodiimide) and 1.4 mg/mL NHS (N-hydroxysuccinimide, Sigma-Aldrich). Once activated, 20 μg/mL PLA2R-NC3 in 10 mM sodium acetate buffer (pH 4.5) (BIO-RAD) was injected onto sensor chip lanes for immobilization. Ethanolamine was injected to deactivate the sensors from further immobilization.
Subsequently, all AIPs were tested in triplicate using the same concentration. […] Hepes buffer was subsequently flown over, and the dissociation phase was measured for 400 s. The sensors were then regenerated with two successive injections (40 s) of 10 mM NaOH (sodium hydroxide). Each measured response of anti-PLA2R IgG with or without peptides to immobilized PLA2R-NC3 protein was calibrated against nonspecific binding of the sensor to Hepes buffer and Hepes buffer containing antibodies with or without peptides to a blank immobilized sensor. The maximal response was measured for all conditions of anti-PLA2R IgG and percentage inhibition of PLA2R autoantibody binding to PLA2R by AIPs calculated.

[3] = system: PLA2R autoantibody from one MN patient serum; assay: Peptide microarray binding detection (PEPperCHIP); details: MN patient serum at 1:100, goat anti-human IgG DyLight 680
Source text: To probe the importance of the amino acids within the PLA2R epitope in human autoantibody recognition, we utilized a printed peptide microarray. This peptide laser printing technology allows the synthesis of peptides (between 15 and 20 amino acids in length) directly onto glass slides followed by single substitution scans, which involves the stepwise substitution of all amino acid positions of a given epitope with all 20 main amino acids (Fig. 1A). We first synthesized a stepped series of truncated peptides across the originally discovered 31mer epitope (at both N- and C-terminus end) in order to identify the minimum sequence retaining high-affinity binding. […] We have previously shown that the epitope peptide is a disulphide-bonded structure, and its reactivity to human anti-PLA2R is sensitive to reduction ([8]). […] The substitution scan of these two regions was performed by exchange of the native amino acids with all 20 main amino acids. […] To further investigate this, a second array (platform 3) combined both parts of the N-terminal region and the cyclic C-terminal region. […]
Peptide microarrays were generated and performed by PEPperPRINT (Heidelberg, Germany) ([31], [32]). […] Peptide spot intensity quantification and peptide annotation were executed with PepSlide Analyzer. […]

PLA2R autoantibody = assay: Autoantibody binding to Endo180 protein (western blot and dot blot, Fig. S2); set-up: species or system human; details: western blot non reduced and reduced; dot blot under native condition
Method: To determine the contribution of the conformation of the epitope sequence, the binding of the autoantibody was tested against Endo180 protein, another member of the mannose receptor family with high structural homology of the PLA2R CysR domain (SI Appendix, Fig. S2).
Fig. S2: PLA2R autoantibodies incapable of binding to Endo180 potentially due to lack of surface cavity in the P28mer epitope region.
A) Sequences from the P28mer region in the mannose receptor family proteins were subjected to consensus mapping by weblogo. Residues conserved in all mannose receptor proteins are indicated with *. B) Western blot analysis of PLA2R and Endo180 under non reduced and reduced conditions using anti-His and human PLA2R autoantibody. C) Dot blot analysis of PLA2R and […]
PLA2R autoantibody under native condition. D) Comparison of the PLA2R, DEC -205 (5ao5) and Endo-180 (7jpt) structures and their overlays. The RSMD values generated were 3.184 Å RMSD for analysis between PLA2R and Endo180, 3.558 Å RMSD for DEC-205 and Endo180, where Endo180 was used as reference.
(1 picture or pasted object on this page, not shown here)

- binding affinity of immobilized peptide to anti-PLA2R positive sera, relative to P28mer [1]: lower affinity than the P28mer
- percentage inhibition of PLA2R autoantibody binding to PLA2R [2]: ~40%
Molecule: VIQSESLK [AIP1]

Molecule: KGIFVIQSESLKKC [platform 1, microarray-printed linear region […] of P28mer]
- autoantibody binding to printed peptide (fluorescence intensity) [3]: no significant binding

- binding affinity of immobilized peptide to anti-PLA2R positive sera, relative to P28mer [1]: lower affinity than the P28mer
Molecule: SVLTLENCK [AIP2]

Molecule: CIQAGKSVLTLENCK (disulfide 1-14 (inferred)) [platform 2, microarray-printed cyclic region […] of P28mer, cyclized by disulphide]
- autoantibody binding to printed peptide (fluorescence intensity) [3]: no significant binding

B1: Endo180: mannose receptor family protein with high structural homology to the PLA2R CysR domain (protein, UniProt Q9UBG0 31-1479, looked up)
C-type mannose receptor 2: GAPGDAALPEPNVFLIFSHGLQGCLEAQGGQVRVTPACNTSLPAQRWKWVSRNRLFNLGTMQCLGTGWPGTNTTASLGMYECDREALNLRWHCRTLGDQLSLLLGARTSNISKPGTLERGDQTRSGQWRIYGSEEDLCALPYHEVYTIQGNSHGKPCTIPFKYDNQWFHGCTSTGREDGHLWCATTQDYGKDERWGFCPIKSNDCETFWDKDQLTDSCYQFNFQSTLSWREAWASCEQQGADLLSITEIHEQTYINGLLTGYSSTLWIGLNDLDTSGGWQWSDNSPLKYLNWESDQPDNPSEENCGVIRTESSGGWQNRDCSIALPYVCKKKPNATAEPTPPDRWANVKVECEPSWQPFQGHCYRLQAEKRSWQESKKACLRGGGDLVSIHSMAELEFITKQIKQEVEELWIGLNDLKLQMNFEWSDGSLVSFTHWHPFEPNNFRDSLEDCVTIWGPEGRWNDSPCNQSLPSICKKAGQLSQGAAEEDHGCRKGWTWHSPSCYWLGEDQVTYSEARRLCTDHGSQLVTITNRFEQAFVSSLIYNWEGEYFWTALQDLNSTGSFFWLSGDEVMYTHWNRDQPGYSRGGCVALATGSAMGLWEVKNCTSFRARYICRQSLGTPVTPELPGPDPTPSLTGSCPQGWASDTKLRYCYKVFSSERLQDKKSWVQAQGACQELGAQLLSLASYEEEHFVANMLNKIFGESEPEIHEQHWFWIGLNRRDPRGGQSWRWSDGVGFSYHNFDRSRHDDDDIRGCAVLDLASLQWVAMQCDTQLDWICKIPRGTDVREPDDSPQGRREWLRFQEAEYKFFEHHSTWAQAQRICTWFQAELTSVHSQAELDFLSHNLQKFSRAQEQHWWIGLHTSESDGRFRWTDGSIINFISWAPGKPRPVGKDKKCVYMTASREDWGDQRCLTALPYICKRSNVTKETQPPDLPTTALGGCPSDWIQFLNKCFQVQGQEPQSRVKWSEAQFSCEQQEAQLVTITNPLEQAFITASLPNVTFDLWIGLHASQRDFQWVEQEPLMYANWAPGEPSGPSPAPSGNKPTSCAVVLHSPSAHFTGRWDDRSCTEETHGFICQKGTDPSLSPSPAALPPAPGTELSYLNGTFRLLQKPLRWHDALLLCESRNASLAYVPDPYTQAFLTQAARGLRTPLWIGLAGEEGSRRYSWVSEEPLNYVGWQDGEPQQPGGCTYVDVDGAWRTTSCDTKLQGAVCGVSSGPPPPRRISYHGSCPQGLADSAWIPFREHCYSFHMELLLGHKEARQRCQRAGGAVLSILDEMENVFVWEHLQSYEGQSRGAWLGMNFNPKGGTLVWQDNTAVNYSNWGPPGLGPSMLSHNSCYWIQSNSGLWRPGACTNITMGVVCKLPRAEQSSFSPSALPENPAALVVVLMAVLLLLALLTAALILYRRRQSIERGAFEGARYSRSSSSPTEATEKNILVSDMEMNEQQE
- interaction of the autoantibody with the protein (PLA2R autoantibody): No interaction was detected

— publication PMC9303975 (Proceedings of the National Academy of Sciences of the …, 2022)
